Measurements published in patent publication EP3505527A1, “CYCLIC DINUCLEOTIDES FOR CYTOKINE INDUCTION” (Invivogen, priority 2017, dated 2019).
Read-outs that look alike come from different tables or passages of the source.

Tests used:
RAW-Difluo™ mLC3 Cells = experiment: Autophagy induction (puncta formation) in RAW-Difluo mLC3 reporter cells; format: cell-based, murine; details: 8 hours
Procedure: The ability of the CDNs of the present invention, to activate STING-dependent autophagy induction was measured using the murine autophagy reporter cell line obtained directly from InvivoGen.
RAW-Difluo™ mLC3 Cells are autophagy reporter cells derived from the murine RAW 264.7 macrophage cell line, a physiologically relevant cell line. They express an RFP::GFP::LC3 fusion protein, RFP-GFP-LC3, in which the N-terminus of murine LC3 is fused to two fluorescent reporter proteins: a RFP (acid-stable) and a GFP (acid-sensitive). In these cells, the RFP-GFP pair enables monitoring of autophagic flux in real time by detecting the appearance of green (GFP-LC3) and/or red (RFP-LC3) puncta by fluorescence microscopy.
Approximately 50,000 cells (500 µL) per well of 24-well plates were seeded 24 h before treatment. The next day, the cells were treated either with a solution containing a CDN at one of three different concentrations (1 µg/mL, 3 µg/mL or 10 µg/mL) or with Rapamycin at 25 µM, or were left untreated. The plates were incubated at 37 °C in a CO2 incubator for 8 hours. Fluorescence intensity and puncta formation was monitored at λexc = 480 nm and λem = 505 nm.

IRF pathway [1] = molecular target: T1, IRF pathway (Homo sapiens, UniProt Q86WV6); experiment: ISG54 (IRF pathway) Lucia reporter assay in THP-1-Dual cells, Type I IFN induction; format: cell-based
Description: The IRF pathway has been investigated by using the two following ISG reporter cell lines obtained directly from InvivoGen. They are described here and provided with their corresponding InvivoGen catalog code.

NF-κB pathway = NF-κB pathway (Homo sapiens, UniProt Q86WV6); experiment: NF-κB SEAP reporter assay in THP1 Dual cells; format: cell-based
STING = experiment: STING-dependent cytokine induction, overall activity in words (THP1 Dual in vitro and whole blood ex vivo, Tables 2 to 4); format: cell-based, human; details: comment on Tables 2 and 3
Description: (§1) . The ex vivo (whole blood assay) cytokine-induction activity of a representative set these cyclic dinucleotides is reported here with the same protocol described in Example 2.2.
as §1, §1

[2] = system: Panc02 (murine pancreatic tumor cell line); experiment: Murine orthotopic Panc02 pancreatic cancer model, i.p. monotherapy; format: in vivo, mouse; details: for final mean tumor volume: Panc02, 1 mg/Kg i.p. once daily, 4 days a week for 3 weeks; for final mean tumor volume / incidence of metastasis: day 28; for tumor growth / incidence of metastasis: Panc02, 1 mg/Kg i.p.; for tumor growth: compared with control group
Description: • Species evaluated: mouse • Tumor model: Panc02 (murine pancreatic tumor cell line) • Treatments tested: CL735 and CL742 (monotherapy) • Clinical parameters evaluated: tumor volume, tumor weight and incidence of metastasis • Administration routes evaluated: intraperitoneal (i.p.) injection
On Day 1, […] (C57BL/6; male) received an orthotopic injection of Panc02 tumor cells (1 x 106) in the pancreas. On Day 8, the mice were then divided into two groups of eight each (treated groups) and one group of five (control group). Each group received a different treatment, as outlined below: • Group 1 (control): saline (by i.p. injection) once daily, 4 days a week for 3 weeks; • Group 2: CL735 at 1 mg/Kg (by i.p. injection) once daily, 4 days a week for 3 weeks; • Group 3: CL742 at 1 mg/Kg (by i.p. injection) once daily, 4 days a week for 3 weeks
Left: Weight of individual Panc02 tumors at day 28 by treatment group. Right: Mean tumor weight at day 28, sd and sem for each group. • Figure 9. Left: Volume of individual Panc02 tumors at day 28 by treatment group. Right: Mean tumor volume at day 28, sd and sem for each group. • Figure 10. Incidence of metastasis in a murine model of Panc02 tumors. The mice were treated with saline (control), CL735 or CL742 monotherapies and metastases number was recorded at day 28. On the right, table indicated the mean of metastases number on animals that have survived by day 28, sd and sem for each group.

IRF pathway [3] = molecular target: T1, IRF pathway; experiment: ISG54 reporter assay in THP-1-Dual KO-STING cells; format: cell-based; details: THP1-Dual KO-STING cells (Figures 2A and 2B)
Description: THP-1-Dual™-KO-STING (InvivoGen catalog code: thpd-kostg): These cells were generated from the human monocyte THP-1-Dual™, through stable homozygote knockout of the STING gene. Bialielic STING knockout was verified by functional assays, PCR and DNA sequencing.

[4] = system: B16 (murine melanoma tumor cell line); experiment: Murine subcutaneous B16 melanoma model, i.t. monotherapy; format: in vivo, mouse
Description: • Species evaluated: mouse • Tumor model: B16 (murine melanoma tumor cell line) • Treatments tested: CL742 and CL747 (monotherapy) • Clinical parameters evaluated: tumor volume • Administration routes evaluated: intratumoral (i.t.) injection
On Day 1, 15 mice (C57BL/6; male) received a subcutaneous injection of B16 tumor cells (1 x 105) on the right flank. On Day 13, the mice were then divided into two groups of five each (treated groups) and one group of five (control group). Each group received a different treatment, as outlined below: • Group 1 (control): saline (i.t. injection) at days 13 16 and 20; • Group 2: CL742 at 1.25 mg/Kg (i.t. injection) at days 13 16 and 20; • Group 3: CL747 at 1.25 mg/Kg (i.t. injection) at days 13 16 and 20
The tumor volume and animal weight were monitored every 2 days and animals were euthanized at Day 28 (Figure 11).

T1 sequence (Q86WV6 whole entry): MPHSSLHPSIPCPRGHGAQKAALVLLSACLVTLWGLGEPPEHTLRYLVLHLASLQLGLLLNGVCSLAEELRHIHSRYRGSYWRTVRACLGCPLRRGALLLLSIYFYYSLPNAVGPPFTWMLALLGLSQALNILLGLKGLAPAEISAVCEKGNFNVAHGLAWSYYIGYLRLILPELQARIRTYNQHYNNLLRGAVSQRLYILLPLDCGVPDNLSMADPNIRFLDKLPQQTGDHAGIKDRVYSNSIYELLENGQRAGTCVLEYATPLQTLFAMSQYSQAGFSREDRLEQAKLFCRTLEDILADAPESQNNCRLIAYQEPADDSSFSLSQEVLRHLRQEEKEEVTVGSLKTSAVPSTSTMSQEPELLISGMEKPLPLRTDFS
Chain of NF-κB pathway (Q86WV6 whole entry): as above

| Molecule | Autophagy level (RAW-Difluo™ mLC3 Cells; 1 µg/mL) | Autophagy level (RAW-Difluo™ mLC3 Cells; 3 µg/mL) | Autophagy level (RAW-Difluo™ mLC3 Cells; 10 µg/mL) | activity (ranking between compounds) (STING) | other results |
| --- | --- | --- | --- | --- | --- |
| O=c1[nH]cnc2c1ncn2[C@@H]1O[C@@H]2COP(=O)(O)O[C@H]3[C@@H](F)[C@H](n4cnc5c(=O)[nH]cnc54)O[C@@H]3COP(=O)(O)O[C@H]2[C@H]1F [CL626, reference compound] | ++ (50% of cells have puncta) | ++ (50% of cells have puncta) | ++ (50% of cells have puncta) |  |  |
| Nc1ncnc2c1ncn2[C@@H]1O[C@@H]2COP(=O)(O)O[C@@H]3[C@@H](F)[C@@H](COP(=O)(O)O[C@H]2[C@H]1F)O[C@H]3n1cnc2c(N)ncnc21 [CL710, (2',3')c-[xylo3'F3'dAMP-2'FdAMP]] |  |  |  |  | EC50 (IRF pathway [1]; THP1 Dual cells, ISG read-out): > 50 µM; EC50 (NF-κB pathway; NFκB read-out): > 50 µM |
| Nc1ncnc2c1ncn2[C@@H]1O[C@@H]2COP(=O)(O)O[C@@H]3[C@@H](F)[C@@H](COP(=O)(S)O[C@H]2[C@H]1F)O[C@H]3n1cnc2c(N)ncnc21 (some centres unmarked) [CL714, (2',3')c-[xylo3'F3'dAM(PS)-2'FdAMP]] |  |  |  | CL714 > CL766 | EC50 (IRF pathway [1]; THP1 Dual cells, ISG read-out): 4.84 µM; EC50 (NF-κB pathway; NFκB read-out): 14.6 µM |
| CC(C)(C)C(=O)OCn1cnc2c(ncn2[C@@H]2O[C@@H]3COP(=O)(O)O[C@H]4[C@@H](F)[C@H](n5cnc6c(=O)[nH]cnc65)O[C@@H]4COP(=O)(O)O[C@H]3[C@H]2F)c1=O [CL733, c-[2'FdI(POM)MP-2'FdIMP]] | +/- (10% of cells have puncta) | +/- (10% of cells have puncta) | + (25% of cells have puncta) |  |  |
| O=c1[nH]cnc2c1ncn2[C@@H]1O[C@@H]2COP(=O)(S)O[C@H]3[C@@H](F)[C@H](n4cnc5c(=O)[nH]cnc54)O[C@@H]3COP(=O)(S)O[C@H]2[C@H]1F (stereo partly drawn) [CL735, c-di[2'FdIMP(S)]] | ++ (50% of cells have puncta) | ++ (50% of cells have puncta) | ++ (50% of cells have puncta) |  | final mean tumor volume [2]: 150 +/- 69 mm3; tumor growth [2]: significant reduction in tumor growth; incidence of metastasis [2]: no metastases were found; production of Type I interferons (IRF pathway [3]): did not induced production of Type I interferons |
| O=c1[nH]cnc2c1ncn2[C@@H]1O[C@@H]2COP(=O)(O)O[C@@H]3[C@@H](F)[C@@H](COP(=O)(O)O[C@H]2[C@H]1F)O[C@H]3n1cnc2c(=O)[nH]cnc21 [CL742, (2',3')c-[3'F3'XylodIMP-2'FdIMP]] | +/- (10% of cells have puncta) | +/- (10% of cells have puncta) | + (25% of cells have puncta) |  | final mean tumor volume [2]: 47 +/- 29 mm3; tumor growth [2]: significant reduction in tumor growth; incidence of metastasis [2]: no metastases were found; production of Type I interferons (IRF pathway [3]): did not induced production of Type I interferons; mean tumor volume ([4]; B16, 1.25 mg/Kg i.t. at days 13 16 and 20, day 20): 779 +/- 816 mm3; tumor growth ([4]; B16, 1.25 mg/Kg i.t., compared with control group): significant reduction in tumor growth |
| CC(C)(C)C(=O)OCSP1(=O)OC[C@H]2O[C@@H](n3cnc4c(N)ncnc43)[C@H](F)[C@@H]2OP(=O)(SCOC(=O)C(C)(C)C)OC[C@H]2O[C@@H](n3cnc4c(=O)[nH]c(N)nc43)[C@H](O1)[C@H]2F (some centres unmarked) [CL751, (2',3')c-[3'F3'XylodGM(PS-POM)-2'FdAM(PS-POM)]] |  |  |  |  | EC50 (IRF pathway [1]; read-out: EC50 THP1 Dual ISG): 0.93 µM; EC50 (NF-κB pathway; read-out: EC50 THP1 Dual NFκB): 2.51 µM |
| CC(C)(C)C(=O)OCSP1(=O)OC[C@H]2O[C@@H](n3cnc4c(N)ncnc43)[C@H](F)[C@@H]2OP(=O)(SCOC(=O)C(C)(C)C)OC[C@H]2O[C@@H](n3cnc4c(N)ncnc43)[C@H](O1)[C@H]2F (some centres unmarked) [CL760, (2',3')c-[xylo3'F3'dAM(PS-POM)-2'FdAM(PS-POM)]] |  |  |  |  | EC50 (IRF pathway [1]; read-out: EC50 THP1 Dual ISG): 0.33 µM; EC50 (NF-κB pathway; read-out: EC50 THP1 Dual NFκB): 1.76 µM |
| Nc1nc(Cl)nc2c1ncn2[C@H]1C[C@@H]2OP(=O)(O)OC[C@H]3O[C@@H](n4cnc5c(=O)[nH]cnc54)[C@H](F)[C@@H]3OP(=O)(O)OC[C@H]2O1 [CL761, (3'3')c-(2CIdAMP-2'FdIMP)] |  |  |  | CL761 < CL760 |  |
| CC(C)(C)C(=O)OCn1cnc2c(ncn2[C@@H]2O[C@@H]3COP(=O)(O)O[C@H]4C[C@H](n5cnc6c(N)nc(Cl)nc65)O[C@@H]4COP(=O)(O)O[C@H]3[C@H]2F)c1=O [CL762, (3'3')c-[2CIdAMP-2'FdI(POM)MP]] |  |  |  | CL762 < CL760 |  |
| Nc1ncnc2c1ncn2[C@@H]1O[C@@H]2COP(=O)(S)O[C@@H]3[C@@H](F)[C@@H](COP(=O)(S)O[C@H]2[C@H]1F)O[C@H]3n1cnc2c(N)ncnc21 (some centres unmarked) [CL766, (2',3')c-[xylo 3'F3'dAM(PS)-2'FdAM(PS)]] |  |  |  |  | EC50 (IRF pathway [1]; THP1 Dual cells, ISG read-out): > 50 µM; EC50 (NF-κB pathway; NFκB read-out): > 50 µM |
| Nc1ncnc2c1ncn2[C@@H]1O[C@@H]2COP(=O)(O)O[C@@H]3[C@@H](F)[C@@H](COP(=O)(S)O[C@H]2[C@H]1F)O[C@H]3n1cnc2c(=O)[nH]cnc21 (some centres unmarked) [CL781, (2',3')c-[3'F3'XylodIMP-2'FdAM(PS)]] |  |  |  | CL781 >> CL764 |  |
| CC(C)(C)C(=O)OCSP1(=O)OC[C@H]2O[C@@H](n3cnc4c(=O)[nH]cnc43)[C@H](OP(=O)(O)OC[C@H]3O[C@@H](n4cnc5c(N)ncnc54)[C@H](F)[C@@H]3O1)[C@H]2F (some centres unmarked) [CL784, (2',3')c-[3'F3'XylodIMP-2'FdAM(PS-POM)]] |  |  |  | CL784 > CL781 |  |
| CO[C@H]1C[C@@H]2CC[C@@H](C)[C@@](O)(O2)C(=O)C(=O)N2CCCC[C@H]2C(=O)O[C@H]([C@H](C)C[C@@H]2CC[C@@H](O)[C@H](OC)C2)CC(=O)[C@H](C)/C=C(\C)[C@@H](O)[C@@H](OC)C(=O)[C@H](C)C[C@H](C)/C=C/C=C/C=C/1C [Rapamycin, reference compound] |  |  |  |  | Autophagy level (RAW-Difluo™ mLC3 Cells; 25 µM): ++++ (90% of cells have puncta) |
| O=c1[nH]cnc2c1ncn2[C@@H]1O[C@@H]2COP(=O)(O)O[C@H]3[C@@H](O)[C@H](n4cnc5c(=O)[nH]cnc54)O[C@@H]3COP(=O)(O)O[C@H]2[C@H]1O [cdiIMP, reference compound] | + (25% of cells have puncta) | ++ (50% of cells have puncta) | +++ (75% of cells have puncta) |  |  |
| (2',3')c-[3'F3'XylodIM(PS)-2'FdI(POM)MP] [CL746] | ++ (50% of cells have puncta) | ++ (50% of cells have puncta) | ++ (50% of cells have puncta) |  |  |
